Several values for one entry are separate records, joined by “and”; a condition that tells them apart may be missing. Equal values may be shown once.

In one data set the test system is LC3-II. Nature of the data set: Western blotting of autophagy marker LC3-II in cell lysates. The conditions noted are these: for amount of intracellular LC3-II: control 0.44±0.00; for LC3-II amounts: INS-1 cells. Format: cell-based, rat. As for the experimental part:
(§1) Trypsin is applied to 75 cm^2 flask containing INS-1 […] beta cells and it is centrifuged in 1500 rpm for 15 minutes. According to the density of pellet formed after centrifuge, it is centrifuged at 4 °C in 1500 rpm for 5 minutes by providing the washing with pipetting with PBS and transferring into 2 ml eppendorf. The supernatant was removed, lysis buffer was added according to the density of pellet and pipetting is performed carefully. It was left for 30 minutes on the ice by vortexing in every 10 minutes. Then the cells were allowed to lysis by ultrasonication for 10 seconds for 5 times, keeping on ice for 10 seconds and they were centrifuged at 4 °C in 13000 rpm for 10 minutes. The supernatant occurred was taken to 0,2 ml eppendorf tubes, and they were taken to -86 °C temperature. These operations were repeated for 3 times for each of the control and experiment groups.
(§2) Bradford method was used in order to determine the protein content. First, a standard curve was formed by using BSA (bovine serum albumin) having a concentration of 1.46 mg/ml. This curve was prepared as following: Bradford solution was added into 80 µg/ml, 40 µg/ml, 20 µg/ml, 10 µg/ml BSA, their absorbance was measured in 595 nm, it was diluted in a way that the lysates are 1/100 and 160 µl was taken, their absorbance in the same wavelengths was determined. After absorbance/concentration graph of the standards was obtained, the concentrations of the samples whose concentrations are […] were determined by using the slope equation of this graph.
(§3) Protein bands separated by electrophoresis in gel were transferred from the gel into nitrocellulose membrane. After membrane transferring operation, transfer efficiency was controlled for 15 minutes by using Ponceau S painting solution.
(§4) The membrane wherein the proteins were transferred, was incubated at room temperature for 1 hour with blocking solution prepared with skimmed milk powder. The membranes were incubated with primary antibodies suitable diluting ratios (Table 1) for 1 night at +4 °C, following the blocking operation. Following this operation, washed membranes were treated with peroxidase marked goat anti-rabbit secondary IgGs (Santa Cruz, CA, USA, sc-2004) at room temperature for 1 hour. Following the treatment with secondary antibodies of membranes, they were washed with washing solution and shaken with pure water. Then, the specific protein bands were monitored by KodakGL1500 gel monitoring system, by chemiluminescence method using Western Blotting Luminol Reagent (Santa Cruz, CA, USA, sc-2048) chemiluminescence substrate. Their densitometric analysis were performed by "Kodak Molecular Imaging Systems" software. The statistical analysis between the bands were performed by normalizing the band densities of the protein samples whose densitometric analysis were performed, to the density of β-actin protein. Table 1: The primary antibodies used in Western blotting method, the dilution ratios and periods thereof
In order to determine the autophagic dose, LC3-II protein amounts which are the autophagic markers were determined by western blotting method by obtaining lysate from the cells on which 0.75, 1, 1.75, 2, 2.5 and 3 mM palmitic acid was applied. The graph obtained from western blotting bands and the calculation performed as a result of the analysis of these bands is shown in Figure 2.
Intracellular LC3 protein amount was observed by western blotting in order to examine the effect of curaglutide on autophagy stimulated by 1,75 mM palmitic acid in INS-1 beta cells.
(Immunoblotting shows a protein as a band on a membrane.)

A further data set concerns cytochrome-c. Nature of the data set: Western blotting of apoptotic protein cytochrome-c in cell lysates. Format: cell-based, rat. The conditions noted are these: for amount of cytochrome-c: control 1.02±0.02; for cytochrome-c amounts: INS-1 cells, normalized to β-actin. How it is done: as §1, §2, §3, §4
In order to determine the apoptosis dose, p 53, cytochrome-c and active caspase-3 protein amounts were determined by western blotting method by obtaining lysate from the cells in which 0.75, 1,1.75,2,2.5 and 3 mM palmitic acid were applied. The graph obtained from western blotting bands and the calculation performed as a result of the analysis of these bands is shown in Figure 3.
The amount of intracellular proteins such as p53, cytochrome-c and active caspase-3 were observed by western blotting in order to examine the effect of curaglutide on apoptosis stimulated by 2 mM palmitic acid in INS-1 beta cells.

Data set [1] concerns the target dipeptidyl peptidase IV (DPP-IV) (Homo sapiens, UniProt P27487). The conditions noted are these: proteolytic enzyme DPP-IV; cited from earlier work.
The next data set concerns INS-1 beta cells. Nature of the data set: ROS measurement with H2DCFDA. Format: cell-based, rat. The conditions noted are these: INS-1 cells, 3rd hour, control 100%. How it is done: When this compound oxidizes by oxidants or free radicals, fluorescent dichlorofluorescein (DCF) will occur.
INS-beta cells were cultured into the plates covered with black with 96 wells in a way such that there would be 50 000 cells in 100 µl. After the growth of the cells, the experiment group (only palmitic acid given) and the groups wherein curaglutide as both protective and therapeutical against palmitic acid was given were removed at the end of the experiment, and each of the wells were washed with PBS. Then 100 µl PBS was added to every well. Then, start of experiment was accepted as 0th hour by adding 10 mM DCFA and the measurements were taken for 3 hours in every 30 minutes, including 0th hour. The absorbance values of each group and the absorbance values in 3rd hour was calculated by assuming the value of the control group as 100%.
ROS measurement was performed by applying H 2 DCFDA occurred as a result of chemical […] of fluorescein which is used as a marker for reactive oxygen derivatives (ROS) to INS-1 beta cells wherein palmitic acid was applied in different doses, and the results are shown in Figure 5.
ROS measurement was performed by applying 10 nM curaglutide as protector and therapeutical to INS-1 beta cells wherein palmitic acid was applied in different doses, and the results are shown in Figure 11.

Sequence of dipeptidyl peptidase IV (DPP-IV) (P27487 whole entry, species assumed): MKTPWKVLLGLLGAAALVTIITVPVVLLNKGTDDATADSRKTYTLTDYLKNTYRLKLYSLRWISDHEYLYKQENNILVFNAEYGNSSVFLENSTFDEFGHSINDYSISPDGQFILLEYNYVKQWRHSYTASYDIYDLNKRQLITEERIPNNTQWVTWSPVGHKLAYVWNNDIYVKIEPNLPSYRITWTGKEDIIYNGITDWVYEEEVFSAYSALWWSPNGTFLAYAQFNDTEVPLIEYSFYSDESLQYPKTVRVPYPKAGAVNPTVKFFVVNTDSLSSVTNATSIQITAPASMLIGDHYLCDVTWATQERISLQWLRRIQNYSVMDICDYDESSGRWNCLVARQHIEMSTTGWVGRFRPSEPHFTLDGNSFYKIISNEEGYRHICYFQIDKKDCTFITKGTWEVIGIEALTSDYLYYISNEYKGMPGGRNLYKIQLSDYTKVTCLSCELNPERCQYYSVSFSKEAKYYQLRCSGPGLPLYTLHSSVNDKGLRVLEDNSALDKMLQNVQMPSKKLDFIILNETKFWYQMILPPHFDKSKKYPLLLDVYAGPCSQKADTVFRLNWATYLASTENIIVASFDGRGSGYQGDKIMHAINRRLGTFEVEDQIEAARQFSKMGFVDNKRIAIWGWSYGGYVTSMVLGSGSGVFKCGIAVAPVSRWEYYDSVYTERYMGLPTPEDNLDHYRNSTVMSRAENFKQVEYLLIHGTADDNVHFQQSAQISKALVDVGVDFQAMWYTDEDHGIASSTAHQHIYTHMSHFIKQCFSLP

For `CC[C@H](C)[C@H](NC(=O)[C@H](Cc1ccccc1)NC(=O)[C@H](CCC(=O)O)NC(=O)[C@H](CCCCN)NC(=O)[C@H](C)NC(=O)[C@H](C)NC(=O)[C@H](CCC(N)=O)NC(=O)CNC(=O)[C@H](CCC(=O)O)NC(=O)[C@H](CC(C)C)NC(=O)[C@H](Cc1ccc(O)cc1)NC(=O)[C@H](CO)NC(=O)[C@H](CO)NC(=O)[C@@H](NC(=O)[C@H](CC(=O)O)NC(=O)[C@H](CO)NC(=O)[C@@H](NC(=O)[C@H](Cc1ccccc1)NC(=O)[C@@H](NC(=O)CNC(=O)[C@H](CCC(=O)O)NC(=O)[C@H](C)NC(=O)[C@H](Cc1c[nH]cn1)NC(C)=O)[C@@H](C)O)[C@@H](C)O)C(C)C)C(=O)N[C@@H](C)C(=O)N[C@@H](Cc1c[nH]c2ccccc12)C(=O)N[C@@H](CC(C)C)C(=O)N[C@H](C(=O)N[C@@H](CCCCN)C(N)=O)C(C)C` [curaglutide], the “amount of intracellular LC3-II” value worked out at 0.32±0.00 with LC3-II (10 nM curaglutide as curative agent, 1.75 mM palmitic acid (autophagic dose)) and 0.29±0.00 in the data set with LC3-II (10 nM curaglutide as protector, 1.75 mM palmitic acid (autophagic dose)). Also, the amount of cytochrome-c in the data set with cytochrome-c (10 nM curaglutide as curative agent, 2 mM palmitic acid (apoptotic dose)) was 0.67±0.07; in the data set on cytochrome-c (10 nM curaglutide as protector against 2 mM palmitic acid (apoptotic dose)), 0.80±0.10. For the same compound, in data set [1], the “destruction by DPP-IV” value is “resistant to destruction by DPP-IV”.
Turning to `CCCCCCCCCCCCCCCC(=O)O` [palmitic acid], the LC3-II amounts is 0.60±0.00 in the data set with LC3-II (0.75 mM palmitic acid, band density normalized to β-actin, control 0.50±0.01); 0.60±0.00 in the data set with LC3-II (1 mM palmitic acid, band density normalized to β-actin, control 0.50±0.01); 0.70±0.03 and 0.70±0.01 in the data set on LC3-II (1.75 mM palmitic acid (autophagic dose), normalized to β-actin, control 0.50±0.01 / 0.44±0.00); 0.52±0.02 with LC3-II (2 mM palmitic acid, band density normalized to β-actin, control 0.50±0.01); 0.50±0.00 in the data set with LC3-II (2.5 mM palmitic acid, band density normalized to β-actin, control 0.50±0.01); 0.49±0.01 with LC3-II (3 mM palmitic acid, band density normalized to β-actin, control 0.50±0.01). In addition, the cytochrome-c amounts is 1.07±0.02 with cytochrome-c (0.75 mM palmitic acid, control 1.05±0.02); 1.06±0.01 with cytochrome-c (1 mM palmitic acid, control 1.05±0.02); 1.07±0.05 in the data set on cytochrome-c (1.75 mM palmitic acid, control 1.05±0.02); 1.23±0.00 and 1.22±0.00 with cytochrome-c (2 mM palmitic acid (apoptotic dose), control 1.05±0.02 / 1.02±0.02); 1.11±0.04 in the data set with cytochrome-c (2.5 mM palmitic acid, control 1.05±0.02); 1.09±0.02 in the data set on cytochrome-c (3 mM palmitic acid, control 1.05±0.02). Further, the ROS measurement percentages in the data set with INS-1 beta cells (0.5 mM palmitic acid) worked out at 116±6.01%; in the data set on INS-1 beta cells (1 mM palmitic acid) it was 117±2.5%; with INS-1 beta cells (1.5 mM palmitic acid), 119.7±7.0%; in the data set on INS-1 beta cells (1.75 mM palmitic acid) it was 136.5±5.6%; with INS-1 beta cells (2 mM palmitic acid), 145.8±3.8%; with INS-1 beta cells (2.5 mM palmitic acid) it was 172.1±6.1%. Besides, the values for the ROS measurement percentages with INS-1 beta cells (3 mM palmitic acid), in the data set on INS-1 beta cells (3.5 mM palmitic acid) and in the data set on INS-1 beta cells (4 mM palmitic acid) were 174.8±9.9%, 241.6±5.5% and 262.2±9.9%, respectively.

The values above are taken from EP3351262A1, “CURAGLUTIDE FOR IN TREATMENT OF PREDIABETES, DIABETES, OBESITY AND METABOLIC DISEASES ASSOCIATED THERETO” (Istanbul Universitesi Rektorlugu, priority 2016, dated 2018).
